This is an account of results in PubChem BioAssay AID1963846 (Molecular Pharmacology Branch, DTP, NCI, 2024).

For the experiment, the system named is 454973-116-R2-J3-PDC complex spheroid viability. Briefly: Anticancer human tumor 454973-116-R2-J3-PDC patient-derived pancreatic carcinoma cell line growth inhibition [POLQ]. To be noted: for viability, T/C: stronger effect = lower value. The method, then:
Multicellular complex tumor spheroid response to Polymerase (POL) inhibitors (novobiocin, ART-558, RP6685) in combination with a variety of drugs and investigational agents in selected tumor cell lines
The POL inhibitors (novobiocin, ART-558, and RP6685) were evaluated both individually and in combination with standard of care and investigational anticancer small molecules within a complex spheroid model of solid tumors. . Complex spheroids include a stromal component modeled by human endothelial cells (HUVEC) and fibroblasts modeled by human mesenchymal stem cells (MSCs). The concentration ranges selected for each drug and investigational agent were based upon clinically achievable concentrations if the clinical Cmax of the agent was known.
Compounds. The drugs and investigational agents: novobiocin (NSC847541), ART-558 (NSC835418), RP-6685 (NSC848927), peposertib (NSC802822), ceralasertib (NSC780249), elimusertib (NSC800525), camonsertib (NSC841442), AZD-1390 (NSC803789), olaparib (NSC753686), talazoparib (NSC767125), rucaparib (NSC756644), sotorasib (NSC818433), MRTX-1133 (NSC836407), SN-38 (NSC673596), topotecan (NSC609699), epotoside (NSC141540), doxorubicin (NSC123127), gemcitabine (NSC613327), 5-fluorouracil (NSC19893), paclitaxel (NSC125973), vemurafenib (NSC761431), MSA-2 (NSC828583), SN-011 (NSC837082), adavosertib (NSC754352), prexasertib (NSC758257), carboplatin (NSC241240) and oxaliplatin (NSC266046), were obtained from the National Cancer Institute (NCI) Developmental Therapeutics Program Chemical Repository (21). The FDA-approved anticancer drug set is available from the Developmental Therapeutics Program at https://dtp.cancer.gov/organization/dscb/obtaining/. […] The stock solutions were prepared in dimethyl sulfoxide (DMSO, Sigma-Aldrich, St. Louis, MO, cat. D2650), except for the platinum compounds which were prepared in saline (Quality Biological, Gaithersburg, MD, cat. 114-055-101), at 800-fold the tested concentration and stored at -70 degrees C prior to their use. All drugs and investigational agents were tested over a range starting from a high concentration at or near the clinical Cmax and decreasing in half-log increments. If the clinical Cmax for an agent had not been determined, the highest concentration tested was 10 microM, except for SN-38, which was tested at a high concentration of 1 microM.
Cell Culture. All cells were maintained in an incubator at 37 degrees C and 5% CO2 with 95% humidity. The PDC lines were cultured according to standard operating procedures established by the NCI PDMR (https://pdmr.cancer.gov). Table 3 of the manuscript, lists the cell lines along with the number of the three cell types plated to form the mct-spheroids and media for tumor cell growth. After thawing, all PDC lines, except 997537-175-T-J1-PDC and 415267-285-R-J2-PDC, were cultured in Matrigel-coated flasks prepared with a working solution of 1X Ham's F-12 nutrient mix, without supplementation (Thermo Fisher Scientific, cat. 11765054), 100 U/mL penicillin-streptomycin (Thermo Fisher Scientific, cat. 15140122), and 2.5% Matrigel (Corning Inc., Corning, NY, cat. 354248) for the first three passages. The two PDC lines 997537-175-T-J1-PDC and 415267-285-R-J2-PDC were cultured on uncoated flasks. The 857933-349-R-J2-PDC line was cultured in 6C/Colon 1B media containing advanced DMEM/F-12 (Thermo Fisher Scientific, cat. 12634028), 10 mM HEPES (Thermo Fisher Scientific, cat. 15630080), 1X GlutaMAX supplement (Thermo Fisher Scientific, cat. 35050061), 0.1 mg/mL primocin (InvivoGen, San Diego, CA, cat. ant-pm-2), 10% defined fetal bovine serum, heat inactivated (HyClone Laboratories Inc., Logan, UT, cat. SH30070.03HI), 50% L-WRN conditioned media (ATCC, cat. CRL-3276), 1.25 mM N-Acetyl-L-cysteine (Sigma-Aldrich, cat. A9165), 10 mM nicotinamide (Sigma-Aldrich, cat. N0636), 1X B-27 supplement (Thermo Fisher Scientific, cat. 17504044), 1X N-2 supplement (Thermo Fisher Scientific, cat. […]

The mark [1] stands for this setting: compound alone, run of 11/06/2023.

Each structure is given as a SMILES string. Values joined by “and” are separate entries in the source; they are usually repeats but may differ in a detail not shown here. Identical values can stand only once.
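Also: spheroids exposed to drugs for seven days before measurement.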
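For viability, T/C in this document: percent viability relative to DMSO vehicle control wells taken as 100%.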

Turning to `COc1ccc([C@@H](O)c2cc(-c3ncnc4cc(N5CCOCC5)ccc34)c(F)cc2Cl)nn1`, the viability, T/C (compound 0.0316 µM) was 110% and 102% and 101%; the viability, T/C (compound 0.1 µM) was 102% and 96.8% and 98.7%; the viability, T/C (compound 0.316 µM) is 104% and 102% and 94.2%; the viability, T/C (compound 1 µM) is 92.9% and 83.8% and 93%; the viability, T/C (compound 3.16 µM) is 76% and 75.2% and 80.2%; the viability, T/C (compound 10 µM) was 52.7% and 56.2% and 53.7%. Further, the IC50 (curve of compound) is above 10000 nM.

Consider `COc1cccc(OCCCN)c1-c1cc(Nc2cnc(C#N)cn2)n[nH]1`, for which the viability, T/C (compound 0.00316 µM) is 99.7% (2×) and 101%; the viability, T/C (compound 0.01 µM) was 70.4% and 75.3% and 73%; the viability, T/C (compound 0.0316 µM) is 7.56% and 10.8% and 14.6%; the viability, T/C (compound 0.1 µM) was 5.87% and 6.45% and 6.4%; the viability, T/C (compound 0.316 µM) is 4.59% and 5.13% and 4.47%; the viability, T/C (compound 1 µM) was 4.4% and 5.18% and 4.15%. Moreover, the IC50 (curve of compound) was 14.5 nM and 15.7 nM and 15.8 nM.

In the case of `COc1cccc2c1C(=O)c1c(O)c3c(c(O)c1C2=O)CC(O)(C(=O)CO)CC3OC1CC(N)C(O)C(C)O1` (centres undefined), the viability, T/C by setting is: (compound 0.0316 µM) 73.1% and 56.1% and 76.5%; (compound 0.1 µM) 29.5% and 17.3% and 24.4%; (compound 0.316 µM) 22.2% and 15.9% and 20.4%; (compound 1 µM) 9.63% and 3.16% and 7.36%; (compound 3.16 µM) 0.59% and 0.89% and 0.65%; (compound 10 µM) 0.49% and 0.17% and 1.33%. The IC50 (curve of compound) was 62.6 nM and 37.5 nM and 60.1 nM.

Consider `Cc1cccc(N(C)C(=O)C2C(O)CCN2c2nc(C)cc(C(F)(F)F)c2C#N)c1` (centres undefined), for which the viability, T/C is 106% [middle of 13 runs] (compound 0.0316 µM); 108% [middle of 13 runs] (compound 0.1 µM); 107% [middle of 13 runs] (compound 0.316 µM); 100% [middle of 13 runs] (compound 1 µM); 104% [middle of 13 runs] (compound 3.16 µM); 107% [middle of 13 runs] (compound 10 µM). The IC50 was above 10000 nM (compound alone, run of 10/31/2023) and above 10000 nM under setting [1].

Take `Cn1ncnc1[C@H]1c2n[nH]c(=O)c3cc(F)cc(c23)N[C@@H]1c1ccc(F)cc1`: the viability, T/C runs as follows: (compound 0.000316 µM) 112% and 102% (2×); (compound 0.001 µM) 91.7% and 103% and 104%; (compound 0.00316 µM) 92.2% and 107% and 93.9%; (compound 0.01 µM) 95.1% and 86.6% and 101%; (compound 0.0316 µM) 111% and 86.4% and 102%; (compound 0.1 µM) 89.9% and 81.5% and 91.9%. Also, the IC50 (curve of compound) was above 100 nM.

Regarding `Nc1ccc(C#CCN(C(=O)Cc2ncc(C(F)(F)F)cc2C(F)(F)F)c2ccc(F)cc2)nn1`, the viability, T/C reads like this: (compound 0.0316 µM) 109% [middle of 13 runs]; (compound 0.1 µM) 106% [middle of 13 runs]; (compound 0.316 µM) 107% [middle of 13 runs]; (compound 1 µM) 104% [middle of 13 runs]; (compound 3.16 µM) 105% [middle of 13 runs]; (compound 10 µM) 112% [middle of 13 runs]. In addition, the IC50 under setting [1] is above 10000 nM.

As for `Nc1ccn(C2OC(CO)C(O)C2(F)F)c(=O)n1` (centres undefined), the viability, T/C (compound 0.0316 µM) is 12.9% and 5.69% and 16.6%; the viability, T/C (compound 0.1 µM) was 14.2% and 8.25% and 9.25%; the viability, T/C (compound 0.316 µM) was 11.2% and 8.63% and 12.6%; the viability, T/C (compound 1 µM) is 14.3% and 7.78% and 11.7%; the viability, T/C (compound 3.16 µM) was 12% and 9.22% and 12.5%; the viability, T/C (compound 10 µM) is 11.3% and 5.91% and 10.8%. Also, the IC50 (curve of compound) was below 31.6 nM.

As for `O=C(c1cc(Cc2n[nH]c(=O)c3ccccc23)ccc1F)N1CCN(C(=O)C2CC2)CC1`, the viability, T/C is, setting by setting: (compound 0.0316 µM) 105% and 99.8% and 97.1%; (compound 0.1 µM) 96.5% and 99% and 104%; (compound 0.316 µM) 101%; (compound 1 µM) 91.2% and 104% and 90.5%; (compound 3.16 µM) 104% and 102% and 95.3%; (compound 10 µM) 60.6% and 62.5% and 54.9%. In addition, the IC50 (curve of compound) is above 10000 nM.

For `O=c1[nH]cc(F)c(=O)[nH]1`, the viability, T/C is, setting by setting: (compound 0.0316 µM) 107% and 104% and 112%; (compound 0.1 µM) 103% and 102% and 99.7%; (compound 0.316 µM) 101% and 92.2% and 104%; (compound 1 µM) 99.9% and 71.4% and 92.9%; (compound 3.16 µM) 50.8% and 29.6% and 53.3%; (compound 10 µM) 32.6% and 40.2% and 36.8%. The IC50 (curve of compound) is 3340 nM and 1960 nM and 4010 nM.
